≈ marks a conversion by molar mass, not a printed value. Where two headings read alike, the source gives them in different places.
Legend:
Assay type in all cases: cell-based
[1] = system: HT-29 (colorectal carcinoma); test: In vitro tumor growth inhibition (GI50, propidium iodide); settings: Homo sapiens, 96 hrs
[2] = system: Escherichia coli (ATCC™ 25922); test: Antibacterial activity (NCCLS M7-A5); settings: MH medium
[3] = system: Enterococcus faecalis VRE-2 (ATCC™ 51299); test: Antibacterial activity, MIC (NCCLS M7-A5); settings: BHI+ medium, 35° C., 16 to 20 hours
[4] = system: Streptococcus pneumoniae PenR (LSPQ 3349); test: Antibacterial activity, MIC (NCCLS M7-A5); settings: MH medium +2% lysed horse blood
[5] = system: SF268 (CNS); test: In vitro tumor growth inhibition (GI50, propidium iodide); settings: Homo sapiens; SF-268; 96 hrs
[6] = system: Clostridium difficile (ATCC™ 9689); test: Antibacterial activity, MIC (NCCLS M11-A5, anaerobic); settings: Clostridioides difficile
Experimental: Antibacterial activity of Compounds 1 and 2 (Table 7) was measured by determining the minimal inhibitory concentration (MIC) necessary to obtain a complete inhibition of bacteria growth in seven indicator strains, namely Staphylococcus aureus (ATCC™ 6538P), Staphylococcus aureus MRS3 (ATCC™ 700699), Enterococcus faecalis VRE-1 (ATCC™ 29212), Enterococcus faecalis VRE-2 (ATCC™ 51299), Escherichia coli (ATCC™ 25922), Streptococcus pneumoniae (LSPQ 3412) and Streptococcus pneumoniae PenR (LSPQ 3349). Indicator strains preparation and MIC determination were performed according to the National Committee for Clinical Laboratory Standards (NCCLS) guideline M7-A5 Methods for Dilution Antimicrobial Susceptibility Tests for Bacteria That Grow Aerobically; Approved Standard-Fifth Edition. (NCCLS document M7-A5, ISBN 1-56238-394-9; NCCLS, 940 West Valley Road, Suite 1400, Wayne, Pa. 19087-1898 USA), the content of which is incorporated herein by reference. MIC determination against C. difficile was performed according to National Committee for Clinical Laboratory Standards (NCCLS) guideline M11-A5 Methods for Antimicrobial Susceptibility Testing of Anaerobic Bacteria.
Compounds 1 and 2 were prepared as 100× stock solutions in DMSO, with concentrations ranging from 3.2 mg/mL to 0.003 mg/mL (a two-fold dilution series over 11 points). An aliquot of each 100× stock solution was diluted 50-fold in test medium described below to give a set of eleven (11) 2× solutions. 50 μL of each of the eleven 2× solutions was aliquoted into the corresponding well of a 12-well row, with the final well reserved for medium alone control.
Vancomycin (Sigma™), used as positive control compound, was prepared as 2× stock solutions in Mueller-Hinton test medium ranging from 64 μg/mL to 0.06 μg/ml (a two-fold dilution series over 11 points). An aliquot of 50 μL corresponding to each concentration (at 2×) was then transferred to 96-well microplates to obtain a series of eleven two-fold dilutions.
An isolated colony of each of the indicator strains was used to inoculate tubes containing 2 mL of test medium. […]

[7] = system: Staphylococcus aureus MRS3 (ATCC™ 700699); test: Antibacterial activity, MIC (NCCLS M7-A5); settings: MH medium, 35° C., 16 to 20 hours
[8] = system: Enterococcus faecalis VRE-1 (ATCC™ 29212); test: Antibacterial activity, MIC (NCCLS M7-A5); settings: BHI+ medium
[9] = system: Staphylococcus aureus (ATCC™ 6538P); test: Antibacterial activity, MIC (NCCLS M7-A5); settings: MH medium, 35° C., 16 to 20 hours
[10] = system: PC-3 (prostate adenocarcinoma); test: In vitro tumor growth inhibition (GI50, propidium iodide); settings: 96 hrs
[11] = system: MDA-MB-231 (mammary gland adenocarcinoma); test: as above; settings: Homo sapiens, 96 hrs
[12] = system: Streptococcus pneumoniae (LSPQ 3412); test: Antibacterial activity, MIC (NCCLS M7-A5); settings: MH medium +2% lysed horse blood
[13] = system: Saccharomyces cerevisiae FHCRC-50514; test: Antifungal activity, MIC (NCCLS M27-A); settings: FHCRC50514, after 24 hours, YPD medium
Experimental: (§1) Testing of antifungal activity was performed according to NCCLS method (NCCLS. Reference Method for Broth Dilution Antifungal Susceptibility Testing of Yeasts; Approved Standard. NCCLS document M27-A (ISBN 1-56238-328-0). NCCLS, 940 West Valley Road, Suite 1400, Wayne, Pa. 19087-1898 USA; www.nccls.org.). Compound 1 was prepared as 100× stock solutions in DMSO, with concentrations ranging from 3.2 mg/mL to 0.003 mg/mL (a two-fold dilution series over 11 points). An aliquot of each 100× stock solution was diluted 50-fold in test medium described below to give a set of eleven (11) 2× solutions. 50 μL of each of the eleven 2× solutions was aliquoted into the corresponding well of a 12-well row, with the final well reserved for medium alone control. Inoculum density for each indicator strain was adjusted to OD600=0.1 in 5 mL 0.85% saline, then further diluted 1/1000 in YPD medium. 50 μL of the final dilution (in test medium) of each indicator strain was added to each well of a 12-well row. This brings the final dilution of the test article or control compound in solution to 1×. The final inoculum was approximately 5×10^4 CFU/ml.
(§2) Bacterial strains Streptococcus pneumoniae LSPQ 3412 and LSPQ 3349 were obtained from the “Laboratoire de Sante Publique du Quebec”. Saccharomyces cerevisiae FHCRC-50014 and FHCRC-50514 were obtained from the “Fred Hutchison Cancer Research Center”.

[14] = system: Saccharomyces cerevisiae FHCRC-50014; test: Antifungal activity, MIC (NCCLS M27-A); settings: FHCRC50014, after 24 hours, YPD medium
Experimental: as §1, §2

| Compound | GI50 [1] [µM] | Antibacterial activity [2] | MIC [3] [µg/mL] | MIC [4] [µg/mL] | GI50 [5] [µM] | MIC ([6]; Brucella medium with hemin, vitamin K1 and 5% lysed horse blood, read-out: MIC) [µg/mL] | MIC [7] [µg/mL] | MIC ([8]; 35° C., 16 to 20 hours) [µg/mL] | MIC [9] [µg/mL] | GI50 [10] [µM] | GI50 [11] [µM] | MIC [12] [µg/mL] | MIC [13] [µg/mL] | MIC [14] [µg/mL] | MIC [6] [µg/mL] | MIC ([8]; when tested as control with Compound 2) [µg/mL] |
| --- | --- | --- | --- | --- | --- | --- | --- | --- | --- | --- | --- | --- | --- | --- | --- | --- |
| CCC(C)c1cc2c(=O)c3ccc4c(OC)c5c(=O)c6c(O)ccc(O)c6c(=O)c5c(O)c4c3c(=O)c2c(=O)n1CC(=O)N1CC(C(=O)OC)NC(=O)C1C (stereo not shown) [Compound 2] | 16.1 | inactive | 1 (≈ 1.33 µM) | 1 (≈ 1.33 µM) | 2.63 | 2 (≈ 2.66 µM) | 0.125 (≈ 0.166 µM) | 1 (≈ 1.33 µM) | 0.0625 (≈ 0.0831 µM) | 4.61 | 4.04 | 1 (≈ 1.33 µM) |  |  |  |  |
| OC(Cn1cncn1)(Cn1cncn1)c1ccc(F)cc1F [Fluconazole, reference compound] |  |  |  |  |  |  |  |  |  |  |  |  | 0.25 to 0.5 (≈ 0.816 to 1.63 µM) | 8 (≈ 26.1 µM) |  |  |
| CN[C@H](CC(C)C)C(=O)N[C@H]1C(=O)N[C@@H](CC(N)=O)C(=O)N[C@H]2C(=O)N[C@H]3C(=O)N[C@H](C(=O)N[C@H](C(=O)O)c4cc(O)cc(O)c4-c4cc3ccc4O)[C@H](O)c3ccc(c(Cl)c3)Oc3cc2cc(c3O[C@@H]2O[C@H](CO)[C@@H](O)[C@H](O)[C@H]2O[C@H]2C[C@](C)(N)[C@H](O)[C@H](C)O2)Oc2ccc(cc2Cl)[C@H]1O [Vancomycin, reference compound] |  |  | 32 (≈ 22.1 µM) | 0.5 (≈ 0.345 µM) |  |  | 4 (≈ 2.76 µM) | 8 (≈ 5.52 µM) | 1 (≈ 0.69 µM) |  |  | 0.5 (≈ 0.345 µM) |  |  | 0.5 (≈ 0.345 µM) | 4 (≈ 2.76 µM) |

— patent publication US20060106028A1, “Polycyclic aromatics and derivatives thereof and processes for their preparation” (priority 2004, published 2006)
